Measurements reported in paper PMC6222509, “Dibasic Derivatives of Phenylcarbamic Acid against Mycobacterial Strains: Old Drugs and New Tricks?” (Molecules : A Journal of Synthetic Chemistry and Natural …, 2018).
≈ marks a conversion by molar mass, not a printed value. Like-named read-outs stand apart in the source and are kept apart here.

Columns and labels:
[1] = test system: M. kansasii CNCTC My 235/80 (identical with ATCC 12478; MK 235/80); experiment: in vitro antimycobacterial MIC, dilution micromethod in Šula's semisynthetic medium; format: cell-based, Mycobacterium kansasii
[2] = lipophilicity by isocratic RP-HPLC (log k, k, log kw, S); format: physicochemical; conditions: for log kw: extrapolated to 100% water from log k versus ϕM; for S (slope): slope of log k versus ϕM regression
Description: Octadecyl-functionalized silica gel was currently used as a stationary phase (SPh) and a […] of two solvents at different volume ratios modified retention properties of the SPh. Liquid binary mixtures of methanol (MeOH) with water were employed as mobile phases (MPhs) in the isocratic RP-HPLC. The MeOH modifier was preferred because of similarity of both observed and extrapolated lipophilicity parameters with the ones determined in the octan-1-ol/water partition system, considering also sensitivity to H-bond donor properties of investigated compounds [41].
The modifier was applied in different volume concentrations, which varied from […] (v/v) with 5% increments. This interval was chosen due to very high lipophilicity of investigated salts. Practically, lower volume concentration of MeOH, i.e., less than 85% (v/v) in used MPhs, caused uncertainty of retention times (tr) due to notable peaks broadening, especially within subsets 1i–l and 1m–p. […] The highest tr parameters were found for the molecules 1k (tr = 47.108 min) and 1l (tr = 70.012 min) in the MPh containing 85% proportion (v/v) of MeOH (Table 2).
According to the authors’ opinions based on systematic scientific literature survey, a current research paper was the first, which aimed the log kw parameters of 2-/3-alkoxyphenylcarbamic acid derivatives containing two centers of protonation. The log kw values were extrapolated from intercepts of a relationship between log k and volume fraction of the MPh modifier (ϕM) using the Snyder–Soczewiński linear solvent strength model. The relationship was justified by R > 0.9900, Adj. R^2 > 0.9750 as well as F > 180.00 for calculation of particular log kw parameters (Table 3).
The HPLC separation module Waters e2695 equipped with a Waters 2996 PDA Detector (Waters Corp., Milford, MA, USA) and chromatographic column Symmetry C18 × 5 μm, 4.6 × 250 mm, Part No. W21751W016 (Waters Corp.) were used for estimation of lipophilic properties of the compounds 1a–p at 21 °C.
Isocratic elution was carried out using mobile phases consisting of methanol p.a. (MeOH; Honeywell, Paris, France) and purified water in various volume ratios (80:20, 85:15, 90:10, 95:5 (v/v) and pure MeOH, respectively). Distilled water (CentralChem, Bratislava, Slovak Republic) was purified by the Aquinity2 P10 ultra-pure water system for production of ultra-pure water with an integrated 10 L permeate tank (membraPure, Hennigsdorf, Germany).
Total flow of the column was 1.0 mL/min, injection volume was 4 μL and column temperature was set to 40 °C. The detection wavelengths varying from 236 nm to 238 nm were chosen for current experimental procedures.
Lipophilicity of the compounds 1a–p was determined by reversed-phase high-performance liquid chromatography (RP-HPLC). Methanol (MeOH)/water mobile phases with varying volume ratio of the organic modifier and water (80:20, 85:15, 90:10, 95:5 (v/v) and pure MeOH, respectively) were chosen.
A methanolic solution of potassium iodine was used for dead time (td) determination. Retention factors (capacity factors; k) were calculated according to Equation (17):k = (tr− td)/td(17) where tr was retention time of a solute (in min), the td parameter denoted dead time of potassium iodine, an unretained analyte (in min).
The observed retention (tr) and dead (td) times were means of three independent determinations. Average td values of potassium iodine in used MPhs were as follows: 2.237 min (MeOH/water ratio (v/v) was 80:20), 2.245 min (85:15), 2.245 min (90:10), 2.228 min (95:5) and 2.210 min (pure MeOH), respectively. […]

[3] = Mycobacterium kansasii, ATCC12478, 168 h, 7-day cultivation, read-out: MIC MK 235/80 7-d
[4] = Mycobacterium kansasii, ATCC12478, 336 h, 14-day cultivation, read-out: MIC MK 235/80 14-d
[5] = Mycobacterium kansasii, ATCC12478, 504 h, 21-day cultivation, read-out: MIC MK 235/80 21-d
[6] = mobile phase MeOH/water 80:20 (v/v)
[7] = mobile phase MeOH/water 85:15 (v/v)
[8] = mobile phase MeOH/water 90:10 (v/v)
[9] = mobile phase MeOH/water 95:5 (v/v)
[10] = 14-day cultivation, read-out: MIC MK 235/80 14-d
[11] = 21-day cultivation, read-out: MIC MK 235/80 21-d

Work on `CCCCOc1cccc(NC(=O)OC(CN(CCC)CCC)CN2CCCC2)c1` (centres unmarked) [1e] yielded an MIC [1, 3] of 32 µM (≈ 13.4 µg/mL), an MIC [1, 4] of 32 µM (≈ 13.4 µg/mL) and an MIC [1, 5] of 32 µM (≈ 13.4 µg/mL). The log kw [2] was 4.0258, the “k (retention factor)” value [2, 6] was 3.6174 and the log k [2, 6] was 0.5584. For the same compound, the “k (retention factor)” value [2, 7] was 2.0811, the log k [2, 7] was 0.3183 and the “k (retention factor)” value [2, 8] was 1.4054. For the same compound, the log k [2, 8] was 0.1478, the “k (retention factor)” value [2, 9] was 0.7155 and the log k [2, 9] was −0.1454. For the same compound, the “k (retention factor)” value ([2]; mobile phase pure MeOH) was 0.5063, the log k ([2]; mobile phase pure MeOH) was −0.2956 and the “S (slope)” value [2] was 4.3434.
`CCCCCCCOc1cccc(NC(=O)OC(CN(CCC)CCC)CN2CCCCCC2)c1.Cl.Cl` (centres unmarked) [1p, 1-[2-[({[3-(heptyloxy)phenyl]amino}carbonyl)-oxy]-3-(dipropylammonio)propyl]azepanium dichloride] gave an MIC ([1]; 7-day cultivation, read-out: MIC MK 235/80 7-d) of 8 µM, an MIC [1, 10] of 8 µM and an MIC [1, 11] of 8 µM. The MIC ([1]; Mycobacterium kansasii, ATCC12478, cultivation time not given, read-out: MIC MK 235/80) was 8 µM, the log kw [2] was 6.1749 and the “k (retention factor)” value [2, 6] was 14.0734. The log k [2, 6] was 1.1484, the “k (retention factor)” value [2, 7] was 6.6298 and the log k [2, 7] was 0.8215. The “k (retention factor)” value [2, 8] was 4.0476, the log k [2, 8] was 0.6072 and the “k (retention factor)” value [2, 9] was 1.6036. The log k [2, 9] was 0.2051, the “k (retention factor)” value ([2]; mobile phase pure MeOH) was 0.7759 and the log k ([2]; mobile phase pure MeOH) was −0.1102. The “S (slope)” value [2] was 6.2672.
Work on `CCCCCOc1cccc(NC(=O)OC(CN(CCC)CCC)CN2CCCCCC2)c1.Cl.Cl` (centres unmarked) [1n, 1-[2-[({[3-(pentyloxy)phenyl]amino}carbonyl)oxy]-3-(di-propylammonio)propyl]azepanium dichloride] yielded an MIC ([1]; Mycobacterium kansasii, ATCC12478, 168 h, read-out: MIC MK 235/80 7-d) of 8 µM, an MIC ([1]; Mycobacterium kansasii, ATCC12478, 336 h, read-out: MIC MK 235/80 14-d) of 8 µM and an MIC ([1]; Mycobacterium kansasii, ATCC12478, 504 h, read-out: MIC MK 235/80 21-d) of 8 µM. The MIC ([1]; Mycobacterium kansasii, ATCC12478, read-out: MIC MK 235/80) was 8 µM, the log kw [2] was 5.2087 and the “k (retention factor)” value [2, 6] was 8.9166. The log k [2, 6] was 0.9502, the “k (retention factor)” value [2, 7] was 4.5102 and the log k [2, 7] was 0.6542. For the same compound, the “k (retention factor)” value [2, 8] was 2.6333, the log k [2, 8] was 0.4205 and the “k (retention factor)” value [2, 9] was 1.2419. The log k [2, 9] was 0.0941, the “k (retention factor)” value ([2]; mobile phase pure MeOH) was 0.7858 and the log k ([2]; mobile phase pure MeOH) was −0.1047. For the same compound, the “S (slope)” value [2] was 5.3398.
Compound `CCCCCOc1ccccc1NC(=O)OC(CN(CCC)CCC)CN1CCCC1` (centres unmarked) [1b] has an MIC [1, 3] of 32 µM (≈ 13.9 µg/mL), an MIC [1, 4] of 32 µM (≈ 13.9 µg/mL) and an MIC [1, 5] of 62.5 µM (≈ 27.1 µg/mL). The log kw [2] was 4.0454, the “k (retention factor)” value [2, 6] was 6.6904 and the log k [2, 6] was 0.8254. For the same compound, the “k (retention factor)” value [2, 7] was 4.6302, the log k [2, 7] was 0.6656 and the “k (retention factor)” value [2, 8] was 3.2092. The log k [2, 8] was 0.5064, the “k (retention factor)” value [2, 9] was 1.9235 and the log k [2, 9] was 0.2841. For the same compound, the “k (retention factor)” value ([2]; mobile phase pure MeOH) was 1.0479, the log k ([2]; mobile phase pure MeOH) was 0.0203 and the “S (slope)” value [2] was 3.9834.
With `CCCCOc1ccccc1NC(=O)OC(CN(CCC)CCC)CN1CCCCCC1` (centres unmarked) [1i] the MIC [1, 3] was 32 µM (≈ 14.3 µg/mL), the MIC [1, 4] was 62.5 µM (≈ 28 µg/mL) and the MIC [1, 5] was 62.5 µM (≈ 28 µg/mL). The log kw [2] was 4.4679, the “k (retention factor)” value [2, 6] was 9.7297 and the log k [2, 6] was 0.9881. For the same compound, the “k (retention factor)” value [2, 7] was 6.5358, the log k [2, 7] was 0.8153 and the “k (retention factor)” value [2, 8] was 4.2073. The log k [2, 8] was 0.6240, the “k (retention factor)” value [2, 9] was 2.4854 and the log k [2, 9] was 0.3954. The “k (retention factor)” value ([2]; mobile phase pure MeOH) was 1.3198, the log k ([2]; mobile phase pure MeOH) was 0.1205 and the “S (slope)” value [2] was 4.3102.
Compound `CCCCCCCOc1cccc(NC(=O)OC(CN(CCC)CCC)CN2CCCCCC2)c1.O=C(O)C(=O)O` (centres unmarked) [1l, 1-[2-[({[3-(hept-yloxy)phenyl]amino}carbonyl)oxy]-3-(dipropylammonio)propyl]azepanium oxalate] has an MIC [1, 10] of 32 µM, an MIC [1, 11] of 32 µM and an MIC [1, 3] of 16 µM. For the same compound, the log kw [2] was 5.8966, the “k (retention factor)” value [2, 6] was 30.4159 and the log k [2, 6] was 1.4831. For the same compound, the “k (retention factor)” value [2, 7] was 16.4135, the log k [2, 7] was 1.2152 and the “k (retention factor)” value [2, 8] was 9.1601. For the same compound, the log k [2, 8] was 0.9619, the “k (retention factor)” value [2, 9] was 4.2374 and the log k [2, 9] was 0.6271. The “k (retention factor)” value ([2]; mobile phase pure MeOH) was 2.5096, the log k ([2]; mobile phase pure MeOH) was 0.3996 and the “S (slope)” value [2] was 5.5102.
